From a melting point compilation (Tetko et al.; mined from patent text by program, amines drawn as free bases though some values may be those of a salt)

Row | melting point | Compound
1 | 213 °C | Cc1ccc(-c2cncc(OC3SCC(O)C(O)C3O)c2)cc1F (stereo unspecified)
2 | 166 to 168 °C | CCOC(=O)c1cc(NCc2ccccc2)c(Oc2cccc(C(F)(F)F)c2)c(S(N)(=O)=O)c1
3 | 85 to 86 °C | CCCCCC(CCN1C(=O)NC2CC(=O)CC21)OC(C)=O (stereo unspecified)
4 | 151 to 152 °C | COc1cc2c(cc1OS(N)(=O)=O)CCN(Cc1cccc(NS(C)(=O)=O)c1)C2
5 | 132 to 133 °C | COC(=O)c1ncc(OCc2ccccn2)nc1NCc1ccc(OC)c(Cl)c1
6 | 80 to 81 °C | CCCCCCCCCCCCCCCC(=O)C(O)C(=O)C(O)C(=O)CCCCCCCCCCCCCCC (stereo unspecified)
7 | 109 to 110 °C | CCN(CC)CCNC(=O)c1cc(Cl)c(N)cc1OCC(=O)C(C)C
8 | 117 to 122 °C | Cc1cc(-c2nc(-c3c(F)cccc3Cl)nn2C)ccc1-c1ccc(OC(F)(F)F)cc1
9 | 103 to 150 °C | COc1cc(C)c(C(=O)CCCCCCCCCCCCCCCCCCCCC(=O)O)c(O)c1OC
10 | 137 °C | Cc1ccc(SC(Cc2ccc(OCCN(C)c3nc4ccccc4o3)cc2)C(=O)O)cc1 (stereo unspecified)
11 | 139 to 144 °C | CNc1ccc(F)c2c1C(=O)c1ccccc1-2
12 | > 300 °C | CC(=O)Nc1ccc2c(c1)Cc1cc(=O)[nH]nc1-2
13 | 207 to 209 °C | Cc1ccc(S(=O)(=O)NC(=O)C(c2cc3c(cc2Cl)OCO3)c2cn(C)c3cc(CO)ccc23)cc1 (stereo unspecified)
14 | 259 to 261 °C | Cc1ccc(C(=O)C2=C(O)C(=O)N(c3ccc(C)cn3)C2c2ccc(C(C)C)cc2)cc1 (stereo unspecified)
15 | 138 to 142 °C | C=CCc1c(O)ccc2ccc(=O)n(CC=C(C)C)c12
16 | 268 to 269 °C | CNC(=O)c1cc(-n2cnn(Cc3ccc(F)cc3)c2=O)n[nH]1

Row | melting point | Compound
17 | 218 °C | O=C(Nc1ccncn1)Nc1cccc2c1C1CCCCN1C2=O (stereo unspecified)
18 | 210 to 214 °C | CS(=O)(=O)NCCCc1c[nH]c(-c2ccc(F)cc2)c1-c1ccncc1
19 | 168 °C | Cc1ccc(-c2ccc(OC3SCC(O)C(O)C3O)cn2)o1 (stereo unspecified)
20 | 72 °C | O=C(Cc1cc(F)ccc1[N+](=O)[O-])N1CCN(c2nsc3ccccc23)CC1
21 | 91 to 93 °C | c1ccc(CSc2nc3sccn3n2)cc1
22 | 275 °C | O=C1CN2Cc3cc(C(=O)c4cccnc4)ccc3N=C2N1
23 | 138 to 140 °C | CCn1cc(Nc2nc(Br)cn(C)c2=O)cn1
24 | 119 to 121 °C | O=C(N1CC(CCl)c2c1ccc1ccc(S(=O)(=O)N(Cc3ccccc3)Cc3ccccc3)cc21)C(F)(F)F (stereo unspecified)
25 | 98 to 100 °C | CC1(O)CCC(=O)N(O)C1 (stereo unspecified)
26 | 122 to 124 °C | CCCCc1oc2ccccc2c1C(=O)Nc1ccc2cc(OCC#N)ccc2c1
27 | 163 to 165 °C | CCOC(=O)Cn1c2ccccc2c2sccc(=O)c21
28 | 25 °C | CCCCCCCCc1cc(C=O)co1
29 | 158 to 160 °C | N#CN1CCC2(CC1)CN(c1ccccc1Cl)c1ccccc12
30 | 162 to 164 °C | CCCCCn1cc(CCCC)n(Cc2ccc(-c3ccccc3-c3nnn[nH]3)nc2)c1=O
31 | 53 to 54 °C | CCCCNc1c(C(=O)OCC)c(C)nc2sc(C)nc12

Second part, the molecule before the results:

Row | Compound | melting point
32 | CC1(C)CC(=O)c2c(SCc3ccco3)sc(-c3cc[nH]n3)c2C1 | 198 to 200 °C
33 | CCc1cc2c(s1)-n1c(C)nnc1C(CCCCC(=O)Nc1ccccc1)N=C2c1ccc(Cl)cc1 (stereo unspecified) | 238 to 240 °C
34 | CC(C)c1nc(CN(C)C(=O)N[C@H](C(=O)O)C(C)C)cs1 | 82.8 to 93.8 °C
35 | COc1ccc(C2=CC(O)CC2)cc1OC1CCCC1 (stereo unspecified) | 105 to 107 °C
36 | COc1cc(C)cc(-c2nn(CC#N)cc2-c2cc(NC[C@H](C)O)nc(-c3cccnc3)n2)c1 | 200 °C
37 | COc1nc(C)cc(C(=O)NS(=O)(=O)c2ccccc2[N+](=O)[O-])n1 | 212 to 216 °C
38 | CCCCc1ccc(Oc2ccc(C#CC(C)N(O)C(N)=O)o2)cc1 (stereo unspecified) | 116 to 118 °C
39 | CCCCCN(CCCCC)C(=O)C(CCC(=O)OC)CS(=O)(=O)c1ccc(Cl)c(Cl)c1 (stereo unspecified) | 52 to 54 °C
40 | O=C(NO)NCCCCC1CCSS1 (stereo unspecified) | 100 to 101 °C
41 | COc1cc(Nc2c(C#N)cnc3cc(-c4coc(CN5CCN(C)CC5)c4)c(OC)cc23)c(Cl)cc1Cl | 179 to 181 °C
42 | CN1C(=O)C(C2=COc3ccccc3O2)=C(c2cn(C(=O)OC(C)(C)C)c3ccc(OCc4ccccc4)cc23)C1=O | 93 °C
43 | COC(=O)c1cc(COS(C)(=O)=O)cc([N+](=O)[O-])c1 | 96 to 97 °C
44 | Cc1cc(C(=O)Nc2ccc(SC(F)(F)F)c(Cl)c2)c(O)c(C23CC4CC(CC(C4)C2)C3)c1 | 205 to 206 °C
45 | CCc1oc2ccccc2c1C(=O)c1ccc(OC)cc1 | 81 °C
46 | CCOC(=O)NCC(=O)c1ccc(OCC(=O)OC)cc1 | 128 to 129 °C
47 | NC(=S)NCCCCCC(=O)Nc1ccc(C(F)(F)F)cc1 | 140 to 142 °C
48 | CC(C(=O)O)c1ccc(N2CCC=N2)c(Cl)c1 (stereo unspecified) | 94 to 102 °C
49 | CC[C@H](Cn1cnnn1)n1cnc2cc3c(=O)n([C@H](C)Cn4ncnn4)nnc3cc2c1=O | 198 to 200 °C
50 | COC(=O)C(CS)NC(=O)C(=O)NCCS (stereo unspecified) | 112 °C
51 | Cc1cccc(CC(Nc2ccccc2)C(=O)NC(C#N)COCc2ccc(F)c(C(=O)O)c2)c1 (stereo unspecified) | 107 to 108 °C
52 | CCOC(=O)N1CCN(c2ccncc2[N+](=O)[O-])CC1 | 101 to 103 °C
53 | CNC(=O)NS(=O)(=O)c1cc2c(cc1OC)OCCC2CNC(=O)c1cc(Cl)ccc1OC (single isomer, unassigned; (+)) | 147 to 148 °C
54 | CCC(NC(=O)CC(F)(F)F)c1ccc(Cl)c2nc3n(c12)CCCN3c1ccc(Cl)cc1Cl (stereo unspecified) | 285 to 290 °C
55 | CNCCCS(=O)(=O)CCCC(F)(F)C(F)(F)F | 55 to 57 °C

Row | Compound | melting point
56 | O=C1CN=C(c2ccccc2Cl)c2cc(I)ccc2N1 | 260 to 262 °C
57 | Nc1nc2ccccc2c2c1nc(-c1ccccc1)n2CCOc1ccccc1 | 182 to 185 °C
58 | CC(C)C(=O)Nc1ccc(I)c(C(F)(F)F)c1 | 143 to 145 °C
59 | COc1ccc(-c2ccc(-c3ccccc3Cl)n2Cc2cccc(N)n2)cc1 | 147 to 148 °C
60 | Cc1nc2c(O)cccc2n1C | 243 to 245 °C
61 | C=CCc1c(O)ccc2c(C)cc(=O)oc12 | 192 to 195 °C
62 | CCC1=Nc2cc(Cl)ccc2CC(c2sccc2C)N1C (stereo unspecified) | 94 to 96 °C
63 | O=[N+]([O-])c1ccc2c(c1)OC(C1(CCCCCl)OCCO1)CO2 (stereo unspecified) | 74 to 76 °C
64 | CCOC(=O)C1=C(C)NC(C)=C(C(=O)OCC)C1c1csc2ccccc12 | 139 to 142 °C
65 | O=C1c2ccccc2C(=O)c2c(NCCN3CCCCC3)ccc(NCCN3CCCCC3)c21 | 140 to 141 °C
66 | CCCCCCCCCCCCCCCCCCC(N)(CO)CO | 76 to 80 °C
67 | C=CCON=C(C)c1cccc(Oc2nc(OC)cc(OC)n2)c1C(=O)OC | 76 to 78 °C
68 | CC(=O)Oc1ccc(CCc2ccc(NC(=O)C3=C(O)c4ccccc4SC3)cc2)cc1OC(C)=O | 214 to 215 °C
69 | N#Cc1ccc(OCc2ccsc2)cc1OC(C(=O)O)c1ccccc1Br (racemic) | 89 to 98 °C
70 | CCC(CC)Nc1cc(C)nc(Nc2c(C)cc(C)cc2C)c1N | 213 to 216 °C
71 | COCCc1nc2c(N)nc3cc(Br)ccc3c2s1 | 172 to 175 °C
72 | C#CC(CC(=O)O)c1ccc(OC)c(OC2CCCC2)c1 (racemic) | 101 to 102 °C
73 | Cc1nc(C)c(-c2ccnc(Nc3ccc(NC(=O)CCl)cc3)n2)s1 | 217 to 219 °C
74 | Cn1nnc2cc3c(cc2c1=O)OC1CCCN1C3=O (stereo unspecified) | 249 to 251 °C
75 | NC(=O)c1c(OCc2c(F)cc(Br)cc2F)nsc1NC(=O)NCCCCN1CCCC1 | 208 °C
76 | N#CC1C(=O)NC(=O)C(C(=O)OCc2ccccc2)C12CCCCC2 (stereo unspecified) | 153 to 156 °C
77 | CCCCCCCCc1ccc(C(=O)Cc2cccc(C(=O)O)c2)cc1 | 103 to 110 °C
78 | CC(C)c1ccc(-c2cc(-c3cccc(C(=O)O)c3)cs2)cc1 | 208 to 209 °C
79 | CN(C)CCc1[nH]c2ccccc2c1CSC1=NCCS1 | 140 to 143 °C

Row | Compound | melting point
80 | C#CCOc1cc(F)ccc1[N+](=O)[O-] | 38 to 39 °C
81 | Cc1cccc(C(=O)NC(C)(C(N)=S)C(C)C)c1 (stereo unspecified) | 108 to 110 °C
82 | COC(=O)CS(=O)(=O)c1ccc(N2CCN(c3ccc(C#N)cc3)C2=O)cc1 | 246 to 249 °C
83 | Cc1c(O)ccc2c1C(C)(C)CC2 | 92 to 93 °C
84 | CCN(Cc1sc(-c2ccc(C(F)(F)F)cc2)nc1C)c1cc(C)c(OCC(=O)O)c(C)c1 | 161 to 162 °C
85 | CC(C)(C)OC(=O)COc1cc(NC(=O)OC(C)(C)C)c([N+](=O)[O-])cc1-c1ccc(F)cc1 | 92 to 93 °C
86 | c1cc(Nc2ccc(-n3cccc3)cn2)cc(-n2ccnc2)c1 | 152 to 156 °C
87 | COc1cc(Oc2cccc(C(F)(F)F)c2)nc(C(=O)NC2CC2)c1 | 106 to 109 °C
88 | COc1cc(C)c(S(C)(=O)=O)cc1C(=O)O | 228 °C
89 | CC(Br)C(=O)Nc1ccc(Cl)cc1NC1CC1 (racemic) | 130 °C
90 | Cn1c2ccccc2c2c(C(=O)C(F)(F)F)csc21 | 138 to 140 °C
91 | CNC(=O)COC[C@@H]1CC(c2ccc(-c3ccc(N4C[C@H](Cn5ccnn5)OC4=O)cc3F)cn2)=NO1 | 153 to 156 °C
92 | COc1ccc(C=O)c(Br)c1 | 73 to 74 °C
93 | Cc1nc(CCO)c2n1-c1ccc(Cl)cc1C(c1ccccc1Cl)=NC2 | 170 to 171 °C
94 | CCSC1=C(c2ccc(O)cc2)C(=O)c2cc(O)cc(O)c21 | 75 to 77 °C
95 | COc1ccc2c(c1)c(CC(=O)O)c(C)n2Cc1ccccc1OC | 176 to 180 °C
96 | Cc1oc(-c2ccccc2)nc1CCOc1ccc(NC2SC(=O)NC2=O)cc1 (stereo unspecified) | 179 to 180 °C
97 | C#CCN1C(=O)N(c2ccc(C#N)c(C(F)(F)F)c2)C(=O)C1(CF)CF | 126 to 127 °C
98 | Cc1ccc(N2CCOCC2)c(N=C=S)c1 | 91 to 92 °C
99 | Cc1c(-c2ccccc2)oc2c(C#N)cccc12 | 86 to 87 °C
100 | NC(N)=Nc1nc(-c2cccc(CNC(=O)CSCc3ccco3)n2)cs1 | 182 °C
101 | CCc1nnc(-c2ccc(OC)cc2)n1-c1ccc(OC)cc1 | 122 °C
